Assay results taken from patent US4470971A, “Renin inhibitory peptides having His^13” (Merck & Co., Inc., priority 1982, dated 1984).
Where a SMILES comes first, the peptide text is derived from it. [ ]: non-standard residue; d: D form. The star is where a group is joined. Sta = CC(C)C[C@H](N)[C@@H](O)CC(=O)O; Isovaleryl = CC(C)CC(=O)*; Isobutyryl = CC(C)C(=O)*

Biological target: T1, Human renin (Homo sapiens, UniProt P00797)
T1 construct: Human plasma (lyophilized) was used as the source of human substrate and human renin; from tissue; host or cells: human plasma (lyophilized)
T1 sequence (P00797 67-406): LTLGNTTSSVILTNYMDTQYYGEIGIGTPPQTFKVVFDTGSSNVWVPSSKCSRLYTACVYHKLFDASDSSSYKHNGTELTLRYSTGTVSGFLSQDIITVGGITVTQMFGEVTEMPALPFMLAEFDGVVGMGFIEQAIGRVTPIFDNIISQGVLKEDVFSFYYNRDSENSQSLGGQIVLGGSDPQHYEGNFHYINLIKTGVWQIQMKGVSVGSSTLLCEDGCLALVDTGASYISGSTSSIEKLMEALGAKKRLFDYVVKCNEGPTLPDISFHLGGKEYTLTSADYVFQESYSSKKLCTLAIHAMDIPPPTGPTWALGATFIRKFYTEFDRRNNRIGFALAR
Assay: human renin assay, radioimmunoassay of angiotensin I in human plasma (Haber et al.)
Format: biochemical
Conditions: for IC50: lyophilized human plasma as source of human substrate and human renin, read-out: I50 (M) Human renin
Method: In order to illustrate the pig renin inhibition and human renin inhibition of the peptide inhibitor of Example 1, the peptide was evaluated in the pig renin inhibition assay described in Rich et al., J. Med. Chem. 23:27, 1980, and was further evaluated in the human renin assay based on the method of Haber et al., J. Clin. Endocrinol. 29:1349, 1969. The latter method employs a radioimmunoassay technique to measure the amount of angiotensin I product created by renin cleavage of its substrate. Human plasma (lyophilized) was used as the source of human substrate and human renin. I50 values were obtained by plotting data at several inhibitor concentrations.

IC50 [M]	inhibition at 1 µM (at 1.0 × 10^-6 M) [%]	Structure (SMILES)
7.3e-08		CC(C)C[C@H](NC(=O)[C@H](Cc1c[nH]cn1)NC(=O)[C@H](Cc1ccccc1)NC(=O)[C@@H]1CCCN1C(=O)[C@H](Cc1c[nH]cn1)NC(=O)C(C)C)[C@@H](O)CC(=O)N[C@H](C(=O)N[C@@H](Cc1c[nH]cn1)C(=O)NCC(N)=O)C(C)C [N-Isobutyryl-L-histidyl-L-prolyl-L-phenylalanyl-L-histidyl-(3S,4S)-statyl-L-valyl-L-histidyl-L-glycyl amide] (Isobutyryl-HPFH[Sta]VHG-NH2)
	20	CC(C)CC(=O)N[C@H](C(=O)N[C@H](C(=O)N[C@@H](CC(C)C)[C@@H](O)CC(=O)N[C@@H](C)C(=O)N[C@@H](CC(C)C)[C@@H](O)CC(=O)O)C(C)C)C(C)C [Pepstatin, iso-valeryl-Val--Val--Sta--Ala--Sta, reference compound] (Isovaleryl-VV[Sta]A[Sta]-OH)
7.3e-09		CC[C@H](C)[C@H](NC(=O)C[C@H](O)[C@H](CC(C)C)NC(=O)[C@H](Cc1c[nH]cn1)NC(=O)[C@H](Cc1ccccc1)NC(=O)[C@@H]1CCCN1C(=O)[C@H](Cc1c[nH]cn1)NC(=O)CC(C)C)C(=O)N[C@@H](Cc1c[nH]cn1)C(N)=O [iso-Valeryl-His-Pro-Phe-His-Sta-Ile-His-NH2] (Isovaleryl-HPFH[Sta]IH-NH2)
